Results taken from US10196436B2, “Inhibitors of the fibroblast growth factor receptor” (BLUEPRINT MEDICINES CORPORATION, priority 2012, dated 2019).
Like-named read-outs stand apart in the source and are kept apart here.

Columns and labels:
wild type FGFR-1 = wild type FGFR-1 (Homo sapiens (Human), UniProt P11362); assay: FGFR-1 wild type assay at Km (Caliper electrophoretic mobility shift); assay type: biochemical; conditions: 400 uM ATP, 90 minutes, 25 C; read-out: FGFR1 IC50
Procedure: (§1) In order to assess the activity of chemical compounds against the relevant kinase of interest, the Caliper LifeSciences electrophoretic mobility shift technology platform is utilized. Fluorescently labeled substrate peptide is incubated in the presence dosed levels of compounds, a set concentration of kinase and of ATP, so that a reflective proportion of the peptide is phosphorylated. At the end of the reaction, the mix of phosphorylated (product) and non-phosphorylated (substrate) peptides are passed through the microfluidic system of the Caliper LabChip® EZ Reader II, under an applied potential difference. The presence of the phosphate group on the product peptide provides a difference in mass and charge between the product peptide and the substrate peptide, resulting in a separation of the substrate and product pools in the sample. As the pools pass the LEDS within the instrument, these pools are detected and resolved as separate peaks. The ratio between these peaks therefore reflects the activity of the chemical matter at that concentration in that well, under those conditions.
(§2) The reaction was stopped by the addition of 70 ul of Stop buffer (100 mM HEPES pH 7.5, 0.015% Brij 35, 35 mM EDTA and 0.2% of Coating Reagent 3 (Caliper Lifesciences)). The plate was then read on a Caliper EZReader 2 (protocol settings: −1.9 psi, upstream voltage −700, downstream voltage −3000, post sample sip 35 s).

[1] = tested on: MDA-MB-453 cells, which harbor an activating FGFR4 mutation; assay: Cellular potency: phosphorylation of Erk in MDA-MB-453 cells (immunoblot); conditions: Homo sapiens, MDA-MB-453, 1 h, read-out: Potency (pErk IC50)
Procedure: Dose response in MDA-MB-453 cells, which harbor an activating FGFR4 mutation, was measured as follows. Briefly, MDA-MB-453 cells were seeded at 2.5×10^6 cells/6 well, and starved overnight. Compounds were added at varying concentrations (3000, 1000, 300, 100, and 30 nM) for 1 hour. Samples were collected and lysed for immunoblot analysis. The phosphorylation of Erk was measured and the average pErk value of three replicates was plotted with three parameter dose-response (inhibition) curve fit using Prism GraphPad software, which was used to determine the IC50 values.

wild type FGFR-4 = wild type FGFR-4 (Homo sapiens (Human), UniProt P22455); assay: FGFR-4 wild type assay at Km (Caliper electrophoretic mobility shift); assay type: biochemical; conditions: for IC50: read-out: FGFR4 IC50; for Ratio FGFR1/FGFR4: [IC50 for FGFR1]/[IC50 for FGFR4]
wild type FGFR-4, sequence (P22455 22-802): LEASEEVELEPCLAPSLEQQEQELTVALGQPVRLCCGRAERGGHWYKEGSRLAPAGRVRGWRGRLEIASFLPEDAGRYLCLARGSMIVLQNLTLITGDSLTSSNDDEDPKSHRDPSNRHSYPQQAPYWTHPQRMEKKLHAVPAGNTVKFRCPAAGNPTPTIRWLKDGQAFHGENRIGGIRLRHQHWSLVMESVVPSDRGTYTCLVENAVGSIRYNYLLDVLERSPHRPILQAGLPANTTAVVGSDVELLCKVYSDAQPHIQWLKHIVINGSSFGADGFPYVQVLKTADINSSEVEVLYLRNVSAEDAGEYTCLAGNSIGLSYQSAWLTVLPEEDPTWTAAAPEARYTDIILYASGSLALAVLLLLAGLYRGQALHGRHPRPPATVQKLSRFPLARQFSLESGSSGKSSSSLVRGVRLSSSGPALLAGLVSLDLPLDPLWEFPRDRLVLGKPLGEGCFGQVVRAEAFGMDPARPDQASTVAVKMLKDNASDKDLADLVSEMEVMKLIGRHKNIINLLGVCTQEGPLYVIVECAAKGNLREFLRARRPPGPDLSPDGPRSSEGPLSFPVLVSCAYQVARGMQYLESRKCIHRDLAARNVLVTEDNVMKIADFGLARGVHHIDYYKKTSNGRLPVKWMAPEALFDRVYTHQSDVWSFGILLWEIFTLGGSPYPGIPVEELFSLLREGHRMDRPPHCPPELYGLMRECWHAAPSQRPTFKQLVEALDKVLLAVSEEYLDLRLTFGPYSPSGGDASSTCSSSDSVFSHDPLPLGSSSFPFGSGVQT
Procedure: as §1
as §2, with “LabChip® EZ Reader II” for “EZReader 2”

wild type FGFR-1, sequence (P11362 22-822): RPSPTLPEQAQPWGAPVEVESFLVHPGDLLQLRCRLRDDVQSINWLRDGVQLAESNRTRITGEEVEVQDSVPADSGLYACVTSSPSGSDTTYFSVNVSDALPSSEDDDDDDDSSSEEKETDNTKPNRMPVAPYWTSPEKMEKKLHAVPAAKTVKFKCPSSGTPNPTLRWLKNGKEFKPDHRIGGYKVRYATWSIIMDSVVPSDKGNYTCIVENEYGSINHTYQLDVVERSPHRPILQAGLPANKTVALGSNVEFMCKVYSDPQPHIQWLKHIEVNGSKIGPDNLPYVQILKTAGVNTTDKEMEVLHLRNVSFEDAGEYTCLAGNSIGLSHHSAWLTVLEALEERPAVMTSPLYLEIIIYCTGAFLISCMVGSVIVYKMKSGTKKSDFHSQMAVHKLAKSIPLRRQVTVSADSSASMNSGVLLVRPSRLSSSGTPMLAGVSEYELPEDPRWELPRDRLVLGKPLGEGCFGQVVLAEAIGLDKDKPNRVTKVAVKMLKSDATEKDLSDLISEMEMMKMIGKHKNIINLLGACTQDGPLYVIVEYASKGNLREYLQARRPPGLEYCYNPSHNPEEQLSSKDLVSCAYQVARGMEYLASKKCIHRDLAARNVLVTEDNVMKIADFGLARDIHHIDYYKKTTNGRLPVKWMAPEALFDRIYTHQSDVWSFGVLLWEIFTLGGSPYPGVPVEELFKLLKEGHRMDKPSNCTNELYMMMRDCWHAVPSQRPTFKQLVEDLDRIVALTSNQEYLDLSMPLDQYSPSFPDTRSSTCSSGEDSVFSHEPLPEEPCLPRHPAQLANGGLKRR

| SMILES | IC50 (wild type FGFR-1) [nM] | IC50 [1] [nM] | IC50 (wild type FGFR-4; 400 uM ATP, 90 minutes, 25 C) [nM] | Ratio FGFR1/FGFR4 (wild type FGFR-4) | IC50 (wild type FGFR-4) [nM] |
| --- | --- | --- | --- | --- | --- |
| C=CC(=O)Nc1cccc(C)c1Nc1cc2c(cn1)cc(-c1cc(OC)cc(OC)c1)c(=O)n2C [COMPOUND 18] | > 1000 | 10 to 100 |  |  |  |
| C#CC(=O)NCc1cccn2c(-c3cc(NC(=O)NCC(F)(F)F)cc(OC(C)C)c3)cnc12 [COMPOUND 20, N-((3-(3-isopropoxy-5-(3-(2,2,2-trifluoroethyl)ureido)phenyl)imidazo[1,2-a]pyridin-8-yl)methyl)propiolamide] | > 1000 | > 100 |  |  |  |
| C=CC(=O)Nc1cccc(C)c1Nc1ncc2cc(-c3c(Cl)c(OC)cc(OC)c3Cl)cnc2n1 [COMPOUND 26, N-(2-((6-(2,6-dichloro-3,5-dimethoxyphenyl)pyrido[2,3-d]pyrimidin-2-yl)amino)-3-methylphenyl)acrylamide] |  | 1 to 10 | < 10 | A (the ratio is >500) |  |
| C=CC(=O)Nc1ccccc1Nc1cc2c(cn1)cc(-c1c(Cl)c(OC)cc(OC)c1Cl)c(=O)n2C [COMPOUND 31] |  | < 1 | < 10 | B (the ratio is ≥200 and <500) |  |
| C=CC(=O)Nc1ccc(F)c(C)c1Nc1ncc2cc(-c3c(Cl)c(OC)cc(OC)c3Cl)ccc2n1 [COMPOUND 33] | > 1000 | 1 to 10 |  | F (the ratio of [IC50 for FGFR1]/[IC50 for FGFR4] is less than 10) |  |
| C=CC(=O)Nc1cccc(C)c1Nc1ncc2cc(-c3c(Cl)c(OC)cc(OC)c3Cl)cc(F)c2n1 [COMPOUND 34, N-(2-((6-(2,6-dichloro-3,5-dimethoxyphenyl)-8-fluoroquinazolin-2-yl)amino)-3-methylphenyl)acrylamide] |  | 1 to 10 |  |  | < 10 |
| C=CC(=O)Nc1ccccc1-c1ccn2c(-c3cc(NC(=O)NCC(F)(F)F)cc(OC(C)C)c3)cnc2c1 [COMPOUND 38, N-(2-(3-(3-isopropoxy-5-(3-(2,2,2-trifluoroethyl)ureido)phenyl)imidazo[1,2-a]pyridin-7-yl)phenyl)acrylamide] |  | 10 to 100 |  | E (the ratio is >10 and <50) |  |
| C=CC(=O)Nc1cccc(C)c1Nc1cc2c(cn1)cc(-c1c(Cl)c(OC)cc(OC)c1Cl)c(=O)n2C [COMPOUND 39] | > 1000 | < 1 | < 10 | E (the ratio is >10 and <50) |  |
| C=CC(=O)Nc1cccc(C)c1Nc1ncc2cc(-c3c(Cl)c(OC)cc(OC)c3Cl)c(=O)n(C)c2n1 [COMPOUND 43, N-(2-((6-(2,6-dichloro-3,5-dimethoxyphenyl)-8-methyl-7-oxo-7,8-dihydropyrido[2,3-d]pyrimidin-2-yl)amino)-3-methylphenyl)acrylamide] |  | < 1 |  |  |  |
| C=CC(=O)Nc1ccccc1Nc1cc2nc(NC(=O)NC(C)(C)C)c(-c3cc(OC)cc(OC)c3)cc2cn1 [COMPOUND 44] | > 1000 |  |  | E (the ratio is >10 and <50) |  |
| C=CC(=O)Nc1cccc(C)c1Nc1ncc2nc(-c3c(Cl)c(OC)cc(OC)c3Cl)c(=O)n(C)c2n1 [COMPOUND 45, N-(2-((6-(2,6-dichloro-3,5-dimethoxyphenyl)-8-methyl-7-oxo-7,8-dihydropteridin-2-yl)amino)-3-methylphenyl)acrylamide] | > 1000 | < 1 | < 10 | E (the ratio is >10 and <50) |  |
| C=CC(=O)Nc1cccc(F)c1Nc1cc2c(cn1)cc(-c1c(Cl)c(OC)cc(OC)c1Cl)c(=O)n2C [COMPOUND 46] |  | < 1 | < 10 | E (the ratio is >10 and <50) |  |
| C=CC(=O)Nc1cc(Cl)cc(C)c1Nc1ncc2cc(-c3c(Cl)c(OC)cc(OC)c3Cl)ccc2n1 [COMPOUND 49] | > 1000 |  |  | A (the ratio is >500) |  |
| C=CC(=O)Nc1cccc(F)c1Nc1ncc2cc(-c3c(Cl)c(OC)cc(OC)c3Cl)ccc2n1 [COMPOUND 51] | > 1000 |  | 10 to 100 | F (the ratio of [IC50 for FGFR1]/[IC50 for FGFR4] is less than 10) |  |
| C=CC(=O)Nc1cc(N2CCOCC2)cc(C)c1Nc1ncc2cc(-c3c(Cl)c(OC)cc(OC)c3Cl)ccc2n1 [COMPOUND 53] |  | 1 to 10 | < 10 | C (the ratio is ≥100 and <200) |  |
